Assay [1] deals with β-lactamase. The class given is biochemical. As to conditions: read-out: IC50 E. coli CF 102 (β-lactamase inhibition).
Protocol: Various β-lactamases can be isolated from penicillin- or cephalosporin-resistant bacterial strains such as Klebsiella pneumonia NCTC 418, Proteus vulgaris 1028, Bacillus licheniformis 749/C, Escherichia coil SN01 and Citrobacter freundii 1203. For this purpose, the corresponding strains are cultivated in Tryptic Soy Broth (Difco) and harvested by centrifugation in the last logarithmic growth phase (when necessary 50-100 mg/l of ampicillin are added to the medium towards the end of the log-phase in order to induce the β-lactamase). The thus-obtained bacterial mass is treated with 20 mM Tris-HCl buffer (pH 7.0); the cells are broken open with a French press while cooling. The mixture is centrifuged (20,000 r/min.) for 20-30 minutes and a clear crude extract is obtained.
(§4) The determination of the activity of the isolated β-lactamases can be carried out according to the method of O'-Callaghan, C. […] The requisite test batch contains per ml of water: 50 mM phosphate buffer (pH 7.0), 0.1 mM nitrocefin and sufficient enzyme (β-lactamase) to achieve a ΔA/min. of about 0.1.
(§5) The determination of the IC50 was effected by means of a graph.
Assay [2] addresses β-lactamase (Citrobacter freundii, UniProt P05193). As to conditions: read-out: IC50 C. freundii 1982 (β-lactamase inhibition).
Protocol: For this purpose, the corresponding strains are cultivated in Tryptic Soy Broth (Difco) and harvested by centrifugation in the last logarithmic growth phase (when necessary 50-100 mg/l of ampicillin are added to the medium towards the end of the log-phase in order to induce the β-lactamase). The thus-obtained bacterial mass is treated with 20 mM Tris-HCl buffer (pH 7.0); the cells are broken open with a French press while cooling. The mixture is centrifuged (20,000 r/min.) for 20-30 minutes and a clear crude extract is obtained.
as §4, §5
A further assay has as its system E. cloacae. The experiment in a line: In vitro activity of combinations with selected antibiotics against β-lactamase over-producer strains, E. cloacae. Type of assay: cell-based. Conditions: β-lactamase over-producer strain; combinations: constant inhibitor concentration 4 mg/l; unit assumed. Here is the method: (§1) In vitro activity of combinations of Example 5c with selected
(§2) antibiotics against β-lactamase over-producer strains
(§3) (constant inhibitor concentration: 4 mg/l)

A further assay relates to C. freundii. Briefly: In vitro activity of combinations with selected antibiotics against β-lactamase over-producer strains, C. freundii. The class given is cell-based. Conditions: β-lactamase over-producer strain; combinations: constant inhibitor concentration 4 mg/l; unit assumed. Here is the method:
as §1, §2, §3

For a further assay, the system named is Ps. aeruginosa. Briefly: In vitro activity of combinations with selected antibiotics against β-lactamase over-producer strains, Ps. aeruginosa. The class given is cell-based. Conditions: β-lactamase over-producer strain; combinations: constant inhibitor concentration 4 mg/l; unit assumed. Here is the method: as §1, §2, §3
Another assay has as its system E. coli. The experiment in a line: In vitro activity of combinations with selected antibiotics against β-lactamase over-producer strains, E. coli. Type of assay: cell-based. As to conditions: β-lactamase over-producer strain; combinations: constant inhibitor concentration 4 mg/l; unit assumed. Here is the method: as §1, §2, §3
[3] abbreviates: isolated enzyme, nitrocefin substrate, pH 7.0, 37° C., 15 min pre-incubation.

pIC50: −log10 of the molar value. Read-outs that look alike come from different tables or passages of the source.

Sequence of β-lactamase (Citrobacter freundii, UniProt P05193) (P05193 21-381): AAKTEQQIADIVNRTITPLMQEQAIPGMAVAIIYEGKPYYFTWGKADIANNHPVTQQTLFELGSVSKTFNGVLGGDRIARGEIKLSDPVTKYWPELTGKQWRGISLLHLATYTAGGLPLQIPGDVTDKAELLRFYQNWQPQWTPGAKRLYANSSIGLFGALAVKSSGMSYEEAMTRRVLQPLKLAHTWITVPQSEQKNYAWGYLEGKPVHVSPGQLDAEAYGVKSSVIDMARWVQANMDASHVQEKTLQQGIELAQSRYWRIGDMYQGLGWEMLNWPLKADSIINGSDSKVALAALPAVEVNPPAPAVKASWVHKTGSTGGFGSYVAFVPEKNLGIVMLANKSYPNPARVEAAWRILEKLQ

The term pIC50 denotes the negative decadic logarithm of the IC50, by convention in mol/L. Take `CCOC(=O)/C=C/[C@@]1(C)[C@H](C(=O)O)N2C(=O)C[C@H]2S1(=O)=O` [2c (trans ethyl ester), Sodium (E)-(2S,3S,5R)-3-(2-ethoxycarbonyl-vinyl)-3-methyl-4,4,7-trioxo-4-thia-1-aza-bicyclo[3.2.0]heptane-2-carboxylate]: at β-lactamase [1] (pH 7), the pIC50 was 6.34.

As to `C[C@]1(/C=C\C#N)[C@H](C(=O)O)N2C(=O)C[C@H]2S1(=O)=O` [5c (cis nitrile), Sodium (Z)-(2S,3S,5R)-3-(2-cyanoethenyl)-3-methyl-4,4,7-trioxo-4-thia-1-aza-bicyclo [3.2.0]heptane-2-carboxylate], at β-lactamase [1] (pH 7), the pIC50 was 6.90.

As for `C[C@]1(/C=C/C#N)[C@H](C(=O)O)N2C(=O)C[C@H]2S1(=O)=O` [5c (trans nitrile), Sodium (E)-(2S,3S,5R)-3-(2-cyanoethenyl)-3-methyl-4,4,7-trioxo-4-thia-1-aza-bicyclo[3.2.0]heptane-2-carboxylate], the pIC50 on β-lactamase [1] (pH 7) is 6.17.

On to `C[C@]1(/C=C\C(N)=O)[C@H](C(=O)O)N2C(=O)C[C@H]2S1(=O)=O` [6c (cis amide), Sodium (Z)-(2S,3S,5R)-3-(2-carbamoyl-vinyl)-3-methyl-4,4,7-trioxo-4-thia-1-aza-bicyclo[3.2.0]heptane-2-carboxylate], for which the negative logarithm of the IC50 (pIC50) on β-lactamase [1] (pH 7) was 6.89; at β-lactamase [2] (setting [3]), 5.36.

On to `C[C@]1(/C=C/C(N)=O)[C@H](C(=O)O)N2C(=O)C[C@H]2S1(=O)=O` [6c (trans amide), Sodium (E)-(2S,3S,5R)-3-(2-carbamoyl-vinyl)-3-methyl-4.4.7-trioxo-4-thia-1-azabicyclo[3.2.0]heptane-2-carboxylate], for which the figures for the pIC50 at β-lactamase [1] (setting [3]) and at β-lactamase [2] (setting [3]) were 7.27 and 5.65, respectively.

For the compound `CC1(C)S[C@@H]2[C@H](NC(=O)[C@H](NC(=O)c3cnc4cccnc4c3O)c3ccccc3)C(=O)N2[C@H]1C(=O)O` [Apalcillin], the MIC E. cloacae in the assay on E. cloacae was more than 128 µg/mL. In the assay on C. freundii, the MIC C. freundii was more than 128 µg/mL. The MIC Ps. aeruginosa in the assay on Ps. aeruginosa is 64 µg/mL. Also, the MIC E. coli in the assay with E. coli was more than 64 µg/mL.

With `CC(C)(O/N=C(\C(=O)N[C@@H]1C(=O)N2C(C(=O)[O-])=C(C[n+]3ccccc3)CS[C@H]12)c1csc(N)n1)C(=O)O` [Ceftazidime], the MIC E. cloacae with E. cloacae is more than 64 µg/mL. Further, in the assay with C. freundii, the MIC C. freundii was more than 64 µg/mL. For the same compound, the MIC Ps. aeruginosa in the assay on Ps. aeruginosa came to 32 µg/mL. Moreover, the MIC E. coli in the assay with E. coli turned out to be 32 µg/mL.

For `CO/N=C(\C(=O)N[C@@H]1C(=O)N2C(C(=O)O)=C(CSc3nc(=O)c(=O)[nH]n3C)CS[C@H]12)c1csc(N)n1` [Ceftriaxone], in the assay with E. cloacae, the MIC E. cloacae is more than 64 µg/mL. Also, the MIC C. freundii in the assay with C. freundii amounted to 64 µg/mL. Further, in the assay with Ps. aeruginosa, the MIC Ps. aeruginosa was more than 64 µg/mL. Further, the MIC E. coli with E. coli was 16 µg/mL.

In the case of `CCN1CCN(C(=O)N[C@@H](C(=O)N[C@@H]2C(=O)N3[C@@H]2SC(C)(C)[C@@H]3C(=O)O)c2ccccc2)C(=O)C1=O` [Piperacillin], the MIC E. cloacae in the assay on E. cloacae is more than 128 µg/mL. In the assay on C. freundii, the MIC C. freundii is more than 128 µg/mL. Besides, the MIC Ps. aeruginosa with Ps. aeruginosa is more than 64 µg/mL. Besides, the MIC E. coli in the assay on E. coli was more than 64 µg/mL.

Take `C[C@]1(Cn2ccnn2)[C@H](C(=O)O)N2C(=O)C[C@H]2S1(=O)=O` [Tazobactam]: the negative logarithm of the IC50 (pIC50) at β-lactamase [1] (setting [3]) is 7.82; on β-lactamase [2] (pH 7), 6.05.

Source of the values: patent US5644053A, “Penam derivatives” (Hoffmann-La Roche Inc., priority 1994, dated 1997).
